Test results published in patent US10398751B2, “Pharmaceutical compositions of water soluble peptides with poor solubility in isotonic conditions and methods for their use” (STRONGBRIDGE IRELAND LIMITED, priority 2016, dated 2019).
Counter-ions that a name gives are not always drawn. Like-named read-outs stand apart in the source and are kept apart here.

Assay: Solubility screening of veldoreotide acetate (10 mg, incremental volumes of medium, USP definition)
Assay type: physicochemical
From the text: The solubility of veldoreotide acetate in aqueous media was screened by the following method. A fixed amount of 10 milligrams of the peptide was weighed and dissolved at ambient temperature by increased (incremental) volumes of the tested medium until a complete solubility was observed, i.e, clear/transparent solution and absence of any precipitates (the solubility endpoint values were defined according to USP guidance). Following the results of the screening studies, several media were selected for verification studies based on quantitative assessment of the peptide concentration by HPLC (maximal solubility). The results of the screening study are depicted in Table 1 while the results of the verification studies are included in Table 2.

solubility (Acetone (USP), 10 mg in Acetone (USP), read-out: 0.5 ml Soluble (0.02 g/ml; 20 mg/ml)): > 20 mg/mL | solubility (Acetone (USP), 10 mg in Acetone (USP), read-out: 1 ml Sparingly soluble (0.01 g/ml; 10 mg/ml)): > 10 mg/mL | solubility (Acetone (USP), 0.1 ml Freely soluble (0.1 g/ml), 10 mg in Acetone (USP)): > 100 mg/mL | solubility (Acetone (USP), 10 ml Slightly soluble (0.001 g/ml; 1 mg/ml), 10 mg in Acetone (USP)): > 1 mg/mL | solubility (Dextrose 5% (USP), 10 mg in Dextrose 5% (USP), read-out: 0.01 ml Very soluble (1 g/ml)): < 1000 mg/mL | solubility (Dextrose 5% (USP), 10 mg in Dextrose 5% (USP), read-out: 0.5 ml Soluble (0.02 g/ml; 20 mg/ml)): > 20 mg/mL | solubility (Dextrose 5% (USP), 10 mg in Dextrose 5% (USP), read-out: 1 ml Sparingly soluble (0.01 g/ml; 10 mg/ml)): > 10 mg/mL | solubility (Dextrose 5% (USP), 0.1 ml Freely soluble (0.1 g/ml), 10 mg in Dextrose 5% (USP)): > 100 mg/mL | solubility (Dextrose 5% (USP), 10 ml Slightly soluble (0.001 g/ml; 1 mg/ml), 10 mg in Dextrose 5% (USP)): > 1 mg/mL | solubility (Ethanol (USP), 10 mg in Ethanol (USP), read-out: 0.01 ml Very soluble (1 g/ml)): < 1000 mg/mL | solubility (Ethanol (USP), 10 mg in Ethanol (USP), read-out: 0.5 ml Soluble (0.02 g/ml; 20 mg/ml)): > 20 mg/mL | solubility (Ethanol (USP), 10 mg in Ethanol (USP), read-out: 1 ml Sparingly soluble (0.01 g/ml; 10 mg/ml)): > 10 mg/mL | solubility (Ethanol (USP), 0.1 ml Freely soluble (0.1 g/ml), 10 mg in Ethanol (USP)): > 100 mg/mL | solubility (Ethanol (USP), 10 ml Slightly soluble (0.001 g/ml; 1 mg/ml), 10 mg in Ethanol (USP)): > 1 mg/mL | solubility (Lactic acid 37 mM, Mannitol 250 mM, pH 4.3, 10 mg in Lactic acid 37 mM, Mannitol 250 mM (pH 4.3), read-out: 0.01 ml Very soluble (1 g/ml)): < 1000 mg/mL | solubility (Lactic acid 37 mM, Mannitol 250 mM, pH 4.3, 10 mg in Lactic acid 37 mM, Mannitol 250 mM (pH 4.3), read-out: 0.5 ml Soluble (0.02 g/ml; 20 mg/ml)): > 20 mg/mL | solubility (Lactic acid 37 mM, Mannitol 250 mM, pH 4.3, 10 mg in Lactic acid 37 mM, Mannitol 250 mM (pH 4.3), read-out: 1 ml Sparingly soluble (0.01 g/ml; 10 mg/ml)): > 10 mg/mL | solubility (Lactic acid 37 mM, Mannitol 250 mM, pH 4.3, 0.1 ml Freely soluble (0.1 g/ml), 10 mg in Lactic acid 37 mM, Mannitol 250 mM (pH 4.3)): > 100 mg/mL | solubility (Lactic acid 37 mM, Mannitol 250 mM, pH 4.3, 10 ml Slightly soluble (0.001 g/ml; 1 mg/ml), 10 mg in Lactic acid 37 mM, Mannitol 250 mM (pH 4.3)): > 1 mg/mL | solubility (PBS, pH 7.2, 10 mg in PBS pH 7.2, read-out: 0.01 ml Very soluble (1 g/ml)): < 1000 mg/mL | solubility (PBS, pH 7.2, 10 mg in PBS pH 7.2, read-out: 0.5 ml Soluble (0.02 g/ml; 20 mg/ml)): < 20 mg/mL | solubility (PBS, pH 7.2, 10 mg in PBS pH 7.2, read-out: 1 ml Sparingly soluble (0.01 g/ml; 10 mg/ml)): < 10 mg/mL | solubility (PBS, pH 7.2, 0.1 ml Freely soluble (0.1 g/ml), 10 mg in PBS pH 7.2): < 100 mg/mL | solubility (PBS, pH 7.2, 10 ml Slightly soluble (0.001 g/ml; 1 mg/ml), 10 mg in PBS pH 7.2): < 1 mg/mL | solubility (Propylene glycol, 10 mg in Propylene glycol, read-out: 0.01 ml Very soluble (1 g/ml)): < 1000 mg/mL | solubility (Propylene glycol, 10 mg in Propylene glycol, read-out: 0.5 ml Soluble (0.02 g/ml; 20 mg/ml)): > 20 mg/mL | solubility (Propylene glycol, 10 mg in Propylene glycol, read-out: 1 ml Sparingly soluble (0.01 g/ml; 10 mg/ml)): > 10 mg/mL | solubility (Propylene glycol, 0.1 ml Freely soluble (0.1 g/ml), 10 mg in Propylene glycol): > 100 mg/mL | solubility (Propylene glycol, 10 ml Slightly soluble (0.001 g/ml; 1 mg/ml), 10 mg in Propylene glycol): > 1 mg/mL | solubility (Saline (USP) (0.9% NaCl), pH 4.5, 10 mg in Saline (USP) (0.9% NaCl) pH 4.5, read-out: 0.01 ml Very soluble (1 g/ml)): < 1000 mg/mL | solubility (Saline (USP) (0.9% NaCl), pH 4.5, 10 mg in Saline (USP) (0.9% NaCl) pH 4.5, read-out: 0.5 ml Soluble (0.02 g/ml; 20 mg/ml)): < 20 mg/mL | solubility (Saline (USP) (0.9% NaCl), pH 4.5, 10 mg in Saline (USP) (0.9% NaCl) pH 4.5, read-out: 1 ml Sparingly soluble (0.01 g/ml; 10 mg/ml)): < 10 mg/mL | solubility (Saline (USP) (0.9% NaCl), pH 4.5, 0.1 ml Freely soluble (0.1 g/ml), 10 mg in Saline (USP) (0.9% NaCl) pH 4.5): < 100 mg/mL | solubility (Saline (USP) (0.9% NaCl), pH 4.5, 10 ml Slightly soluble (0.001 g/ml; 1 mg/ml), 10 mg in Saline (USP) (0.9% NaCl) pH 4.5): < 1 mg/mL | solubility (caprylic acid, 10 mg in Caprylic acid, read-out: 0.01 ml Very soluble (1 g/ml)): < 1000 mg/mL | solubility (caprylic acid, 10 mg in Caprylic acid, read-out: 0.5 ml Soluble (0.02 g/ml; 20 mg/ml)): > 20 mg/mL | solubility (caprylic acid, 10 mg in Caprylic acid, read-out: 1 ml Sparingly soluble (0.01 g/ml; 10 mg/ml)): > 10 mg/mL | solubility (caprylic acid, 0.1 ml Freely soluble (0.1 g/ml), 10 mg in Caprylic acid): < 100 mg/mL | solubility (caprylic acid, 10 ml Slightly soluble (0.001 g/ml; 1 mg/ml), 10 mg in Caprylic acid): > 1 mg/mL | solubility (double distilled water, 10 mg in DDW (Double distilled water), read-out: 0.01 ml Very soluble (1 g/ml)): < 1000 mg/mL | solubility (double distilled water, 10 mg in DDW (Double distilled water), read-out: 0.5 ml Soluble (0.02 g/ml; 20 mg/ml)): > 20 mg/mL | solubility (double distilled water, 10 mg in DDW (Double distilled water), read-out: 1 ml Sparingly soluble (0.01 g/ml; 10 mg/ml)): > 10 mg/mL | solubility (double distilled water, 0.1 ml Freely soluble (0.1 g/ml), 10 mg in DDW (Double distilled water)): > 100 mg/mL | solubility (double distilled water, 10 ml Slightly soluble (0.001 g/ml; 1 mg/ml), 10 mg in DDW (Double distilled water)): > 1 mg/mL | solubility (glycerol, 10 mg in Glycerol, read-out: 0.01 ml Very soluble (1 g/ml)): < 1000 mg/mL | solubility (glycerol, 10 mg in Glycerol, read-out: 0.5 ml Soluble (0.02 g/ml; 20 mg/ml)): > 20 mg/mL | solubility (glycerol, 10 mg in Glycerol, read-out: 1 ml Sparingly soluble (0.01 g/ml; 10 mg/ml)): > 10 mg/mL | solubility (glycerol, 0.1 ml Freely soluble (0.1 g/ml), 10 mg in Glycerol): < 100 mg/mL | solubility (glycerol, 10 ml Slightly soluble (0.001 g/ml; 1 mg/ml), 10 mg in Glycerol): > 1 mg/mL | solubility (oleic acid, 10 mg in Oleic acid, read-out: 0.01 ml Very soluble (1 g/ml)): < 1000 mg/mL | solubility (oleic acid, 10 mg in Oleic acid, read-out: 0.5 ml Soluble (0.02 g/ml; 20 mg/ml)): < 20 mg/mL | solubility (oleic acid, 10 mg in Oleic acid, read-out: 1 ml Sparingly soluble (0.01 g/ml; 10 mg/ml)): < 10 mg/mL | solubility (oleic acid, 0.1 ml Freely soluble (0.1 g/ml), 10 mg in Oleic acid): < 100 mg/mL | solubility (oleic acid, 10 ml Slightly soluble (0.001 g/ml; 1 mg/ml), 10 mg in Oleic acid): < 1 mg/mL | solubility (refined vegetable oils (olive, cotton, coconut, canola), 10 mg in Refined vegetable oils, Olive, Cotton, Coconut, Canola, read-out: 0.01 ml Very soluble (1 g/ml)): < 1000 mg/mL | solubility (refined vegetable oils (olive, cotton, coconut, canola), 10 mg in Refined vegetable oils, Olive, Cotton, Coconut, Canola, read-out: 0.5 ml Soluble (0.02 g/ml; 20 mg/ml)): < 20 mg/mL | solubility (refined vegetable oils (olive, cotton, coconut, canola), 10 mg in Refined vegetable oils, Olive, Cotton, Coconut, Canola, read-out: 1 ml Sparingly soluble (0.01 g/ml; 10 mg/ml)): < 10 mg/mL | solubility (refined vegetable oils (olive, cotton, coconut, canola), 0.1 ml Freely soluble (0.1 g/ml), 10 mg in Refined vegetable oils, Olive, Cotton, Coconut, Canola): < 100 mg/mL | solubility (refined vegetable oils (olive, cotton, coconut, canola), 10 ml Slightly soluble (0.001 g/ml; 1 mg/ml), 10 mg in Refined vegetable oils, Olive, Cotton, Coconut, Canola): < 1 mg/mL | solubility (water for injection (WFI-USP), 10 mg in WFI-USP (water for injection), read-out: 0.01 ml Very soluble (1 g/ml)): < 1000 mg/mL | solubility (water for injection (WFI-USP), 10 mg in WFI-USP (water for injection), read-out: 0.5 ml Soluble (0.02 g/ml; 20 mg/ml)): > 20 mg/mL | solubility (water for injection (WFI-USP), 10 mg in WFI-USP (water for injection), read-out: 1 ml Sparingly soluble (0.01 g/ml; 10 mg/ml)): > 10 mg/mL | solubility (water for injection (WFI-USP), 0.1 ml Freely soluble (0.1 g/ml), 10 mg in WFI-USP (water for injection)): < 100 mg/mL | solubility (water for injection (WFI-USP), 10 ml Slightly soluble (0.001 g/ml; 1 mg/ml), 10 mg in WFI-USP (water for injection)): > 1 mg/mL
SMILES: C[C@@H](O)[C@@H]1NC(=O)[C@H](CCCCN)NC(=O)[C@@H](Cc2c[nH]c3ccccc23)NC(=O)[C@H](Cc2c[nH]c3ccccc23)NC(=O)[C@H](Cc2ccccc2)NC(=O)CCCNC(=O)CCCN(CC(N)=O)C(=O)[C@H](Cc2ccccc2)NC1=O [Veldoreotide Acetate, Cyclo(-γ-aminobutyryl-L-phenylalanyl-L-tryptophanyl-D-tryptophanyl-L-lysyl-L-threonyl-L-phenylalanyl-N-carbamoylmethyl-γ-aminobutyryl), acetate salt]
